This note sets out measurements from patent US20240287064A1, “TRICYCLIC COMPOUND USED AS GPR84 ANTAGONIST” (Wuhan Humanwell Innovative Drug Research and Development …, priority 2021, published 2024).

Series [1] deals with T1, human GPR84 receptor (Homo sapiens, UniProt Q9NQS5).
T1 construct: expressed in transfected cells; host or cells: CHO
Description: GPR84 antagonistic effect determination (cAMP assay, forskolin and 6-OAU stimulation). The class given is cell-based. The following applies: CHO stably transfected cell line highly expressing human GPR84; 2.5 μM Forskolin & 200 nM 6-OAU; cAMP readout; read-out: Antagonistic effect against GPR84, IC50. A general note: Changes in cAMP serve as a functional read-out for many G protein-coupled receptors.
Description: The antagonistic effect of the compound against GPR84 was determined in a CHO stably transfected cell line highly expressing the human GPR84 receptor. The stably transfected cells were cultured until 80% confluence; the cells were collected by trypsinization, counted, and then inoculated into a 384-well plate at 5 L/well. 10× compound working solution was prepared with 1× Stimulation Buffer. […] After the reaction was completed, the content of CAMP in the cells was quantified according to the method in the instructions of the cAMP assay kit (Perkin Elmer, Cat #TRF0263). The antagonistic effect (IC50 value) of the test compounds was calculated.

Series [2] can be described thus: Pharmacokinetic experiment in mice. The following applies: mouse; male ICR mice, oral gavage 3 mg/kg, plasma. It counts as in vivo. Here is the method:
For the pharmacokinetic experiment in mice, male ICR mice, 20 to 25 g, were used and fasted overnight. Three mice were taken and orally administered by gavage (3 mg/kg): blood was collected before the administration, and at 15 min, 30 min, 1 hour, 2 hours, 4 hours, 8 hours, and 24 hours after the administration. The blood samples were centrifuged at 6800 g for 6 min at 2 to 8° C., and plasma was collected and stored at −80° C. 20 μL of plasma at each time point was taken, and added with 200 μL of methanol containing 100 ng/mL internal standard. The mixture was vortexed, mixed evenly, and then centrifuged at 18000 g for 7 min at 2 to 8° ° C. 200 μL of the mixture was transferred to a 96-well injection plate for LC-MS/MS quantitative analysis. The main pharmacokinetic parameters were analyzed using WinNonlin 7.0 software with non-compartmental model.

T1 sequence (Q9NQS5 whole entry): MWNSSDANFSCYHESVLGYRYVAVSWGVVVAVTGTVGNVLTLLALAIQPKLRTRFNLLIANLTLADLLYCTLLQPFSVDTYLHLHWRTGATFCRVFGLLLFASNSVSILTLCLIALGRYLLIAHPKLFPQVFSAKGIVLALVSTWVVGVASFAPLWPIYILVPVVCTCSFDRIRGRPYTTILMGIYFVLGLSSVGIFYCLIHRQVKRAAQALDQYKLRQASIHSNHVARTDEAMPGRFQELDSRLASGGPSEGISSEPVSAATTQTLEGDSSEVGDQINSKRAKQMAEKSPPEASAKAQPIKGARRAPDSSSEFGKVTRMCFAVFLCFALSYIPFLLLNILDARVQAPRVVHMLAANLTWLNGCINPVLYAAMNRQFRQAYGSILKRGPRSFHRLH

With `O=c1nc(OCC23CC(CO2)C3)cc2n1CCc1cc(C#CC3CC3)ccc1-2` [Compound I-1, 2-((2-oxabicyclo[2.1.1]hexan-1-yl)methoxy)-9-(cyclopropylethynyl)-6,7-dihydro-4H-pyrimido[6,1-α]isoquinolin-4-one], the IC50 in series [1] came to 0.0272 µM. For the same compound, in series [2], the area under the curve AUC(0-t) came out at 54400 ng·h/mL, the maximum concentration (Cmax) came out at 14800 ng/mL, the Tmax was 30 min and the half-life is 61.8 min.
On to `O=c1nc(OC[C@@H]2COCCO2)cc2n1CCc1cc(C#CC3CC3)ccc1-2` [Control compound, reference compound], for which, in series [2], the AUC(0-t) was 7280 ng·h/mL, the concentration peaked (Cmax) at 4120 ng/mL, the Tmax came to 30 min and the half-life was 229 min.

The term IC50 denotes the concentration that gives 50% inhibition. For orientation: AUC(0-t) means the area under the concentration-time curve up to a stated or last time point. A lower AUC(0-t) goes with low exposure. As a reminder, the Cmax is the maximum level reached in the sampled fluid or tissue. In general, Tmax refers to the time from dosing to the highest level. By half-life is commonly meant the time in which the quantity being followed falls by half.
